# Assay results from patent US20060167094A1, “Satiety agent” (priority 2005, published 2006).
# Like-named read-outs stand apart in the source and are kept apart here.
# Tests used:
# CCK secretion = details: humans, cited from earlier work
# plasma GLP-1 = experiment: Plasma GLP-1 concentrations by radioimmunoassay; assay type: in vivo, human
# Procedure: (§1) Once the catheter was positioned correctly, fasting motility was monitored until the occurrence of phase III of the interdigestive migrating motor complex (MMC). Immediately after the cessation of phase III activity [at time t=−15 min], a baseline venous blood sample was taken, and a visual analog scale questionnaire (VAS) (see Measurements), assessing appetite-related sensations, was administered. At t=0 min (i.e., during phase I of the MMC), the duodenal infusion of 1) C12, 2) C10, or 3) control solution was commenced and continued for 90 min. APD pressures were monitored throughout the infusion period; blood samples were taken, and the VAS administered every 15 min from t=0 min until t=90 min. At t=90 min, the infusion was terminated, and the subject was immediately extubated and offered a cold buffet-style meal, the composition of which is provided in Table 1. The amount of food offered was in excess of what the subject was expected to consume. The subject was given 30 min (i.e., t=90 min to t=120 min) to consume the meal and instructed to eat until comfortably full. After ingestion of the meal, the subject was monitored for a further 30 min, a further VAS was completed, and blood samples were taken at t=120 and 150 min. The intravenous cannula was then removed, and the subject was allowed to leave the laboratory.
# (§2) Venous blood samples (10 ml) were collected in ice-chilled EDTA-treated tubes containing 400 kIU aprotinin (Trasylol, Bayer Australia) per millilitre of blood. Plasma was separated by centrifugation (3,200 rpm, 15 min, 4° C.) within 30 min of collection and stored at −70° C. until assayed.
# Plasma GLP-1 concentrations (in pmol/l) were measured by radioimmunoassay using an adaptation of a previously published method (4) Antibody, supplied by Prof. […] It is likely that this antibody also reacts with the degraded form of GLP-1(9-36) amide. Intra-assay CV was 17% and interassay CV was 18%, with a sensitivity of 1.5 pmol/l.
# plasma CCK = experiment: Plasma CCK concentrations by radioimmunoassay; assay type: in vivo, human
# Procedure: as §1, §2
# Plasma CCK concentrations (in pmol/l) were determined after ethanol extraction using a previously described radioimmunoassay (3). A commercially available antibody (C258, Lot 105H4852, Sigma Chemical) raised in rabbits against the synthetic sulfated CCK-8 was employed. […] The intra-assay coefficient of variation (CV) was 9% and the interassay CV was 27%, with a sensitivity of 2.5 pmol/l. The sensitivity of the assay relates to its reliable detection limit.
# [1] = Antropyloroduodenal (APD) pressures by manometry during intraduodenal infusion; assay type: in vivo, human
# From the text: Subjects attended the laboratory at 0830 after fasting from 2200 the previous night from both solids and liquids. They were intubated with a 17-channel manometric catheter (Dentsleeve; Adelaide, South Australia, Australia) that was inserted through an anesthetized nostril and allowed to pass through the stomach and into the duodenum by peristalsis. The manometric catheter, which consisted of 16 sideholes spaced at 1.5-cm intervals, measures pressures in the antrum, pylorus, and duodenum. Six side holes (channels 1-6) were positioned in the antrum, a 4.5-cm sleeve sensor (channel 7), with two channels present on the back of the sleeve (channels 8 and 9), designed to measure pressure waves occurring over the entire pyloric region, were positioned across the pylorus, and seven channels were positioned in the duodenum (channels 10-16). An additional channel, used for intraduodenal infusions, was positioned 11.75 cm distal to the end of the sleeve sensor. The correct positioning of the catheter, so the sleeve sensor straddled the pylorus, was maintained by continuous measurement of the transmucosal potential difference (TMPD) between the most distal antral channel (channel 6; approximately −40 mV) and the most proximal duodenal channel (channel 10; ˜0 mV). For this purpose, an intravenous cannula filled with sterile saline was placed subcutaneously in the left forearm and used as a reference electrode. All manometric channels were perfused with degassed, distilled water except for the two TMPD channels, which were perfused with degassed 0.9% saline at 0.15 ml/min. An intravenous cannula was also placed into a right forearm vein for blood sampling to measure plasma CCK and GLP-1 concentrations.
# as §1
# APD pressures. Manometric pressures were digitized, recorded on a computer-based system (PowerMac 7100/75, Apple Computers; Cupertino, Calif.) running commercially available software (HAD, Associate Prof. G S Hebbard, Melbourne, Australia) written in LabView 3.1.1 (National Instruments), and stored for subsequent analysis. APD pressures were analysed for 1) number and amplitude of isolated pyloric pressure waves (IPPWs) and pressure waves (PWs) in the antrum and duodenum and 2) number and length of PW sequences (PWSs) in the duodenum using custom-written software (Gastrointestinal Motility Unit; Utrecht, The Netherlands) modified to our requirements. […]
# [2] = isomolar concentrations; cited from earlier work
# [3] = Appetite perceptions (VAS scores) during and after 90 min intraduodenal infusion; assay type: in vivo, human
# Procedure: (§3) Each subject was studied on three occasions, separated by 3-10 days, to evaluate, in a double-blind, randomized fashion, the effects of intraduodenal infusions of 1) C12, 2) C10, or 3) control solution for 90 min on appetite perceptions, energy intake, APD pressures, and plasma CCK and GLP-1 concentrations.
# as §1
# Appetite sensations and energy intake. Subjective sensations of appetite, including hunger, fullness, desire to eat, prospective consumption (“how much food do you think you could eat if you were given a meal now?”), were assessed using validated VASs (Sensations of nausea and bloating were also assessed. Each VAS evaluated a sensation on a 100-mm horizontal line, where 0 represented “sensation is not felt at all” and 100 represented “sensation is felt the greatest.” Subjects were asked to place a vertical stroke on the 100-mm line in relation to what they were feeling at that particular point in time.
# Baseline (“0”) values were calculated as the mean of values obtained at t=−15 and 0 min for VAS scores and plasma hormone concentrations and between t=−15 to 0 min for basal pyloric pressures, number, and amplitude of IPPWs, antral and duodenal PWs, and total number of duodenal PWSs. Basal pyloric pressures and the number and amplitude of IPPWs were expressed as means over 15-min segments during the 90-min infusion period. Numbers and amplitudes of antral and duodenal PWs were expressed as total number and mean values, respectively, for the 90-min infusion period. Duodenal PWSs were expressed as the total number of waves travelling over two, three, four, five, six, and seven channels during the 90-min infusion period. All data, except for plasma CCK and GLP-1 concentrations, were expressed as changes from baseline.
# VAS scores, basal pyloric pressures, number and amplitude of IPPWs, and plasma hormone concentrations were analyzed by repeated-measures mixed model analysis of covariance (ANCOVA), with baseline as the covariate and time (0-90 min, at 15-min intervals) and treatment as within-subject factors. One-way ANOVA was used to assess the effect of treatment on energy intake, time taken to complete eating, total numbers and mean amplitudes of antral and duodenal PWs, and total number of duodenal PWSs. A logarithmic transformation was applied to nausea scores, antral amplitudes, and duodenal PWSs travelling 7.5 and 9 cm to better address the underlying assumptions of the models used (as these variables lacked normal distribution). If significance or near significance ([…]) was found, post hoc comparisons of least-squares means using Student's t-tests were performed. […]
# [4] = Energy intake from the buffet meal after intraduodenal infusion; assay type: in vivo, human
# Procedure: as §3, §1
# Energy intake from the buffet meal [energy consumption (in kJ) and macronutrient distribution (in % and g energy)] was analyzed using commercially available software (Food works 3.0, Xyris Software; Highgate Hill, Queensland, Australia). The time taken to finish the meal (in min) was also evaluated.
# [5] = 90 min infusion, compared with control
# [6] = during 90 min intraduodenal infusion, 0.375 kcal/min, compared with control
# [7] = buffet meal, compared with control
smiles,measurement,setting,value
"CCCCCCCCCC(=O)O [C10, decanoic (C10:0) acid, reference compound]",stimulation of CCK secretion,CCK secretion; gastric infusion,neither C11 nor C10
same,plasma GLP-1 concentrations compared with control,"plasma GLP-1; during infusion, C12 effect from 30 to 90 min",no difference between C10 and control
same,plasma GLP-1 concentrations after meal ingestion,"plasma GLP-1; t=120 and 150 min, compared with control",no difference between C10 and control
same,plasma CCK concentrations,"plasma CCK; during 90 min infusion, compared with control",increased plasma CCK concentrations
same,time of peak plasma CCK,plasma CCK; from start of infusion,15 min
same,basal pyloric pressure (tone),[1]; [5],significant difference between C10 and control
same,number of antral PWs,[1]; [5],no difference between C10 and control
same,number of duodenal PWs,[1]; [5],increased the number of duodenal PWs compared with control
same,number of IPPWs compared with control,"[1]; C12: 0-15, 15-30 and 30-45 min, C10: 0-15 min",increased the number of IPPWs compared with control between 0 and 15 min
same,number of duodenal PWSs travelling over six channels (7.5 to <9 cm),[1]; compared with control,decreased the number of waves that travelled over six channels compared with control
same,number of duodenal PWSs travelling over three channels (3 to <4.5 cm),[1]; compared with control,no difference between C12 or C10 and control
same,number of duodenal PWSs travelling over two channels (1.5 to <3 cm),[1]; compared with control,increased the number of waves compared with control
same,number of waves that travelled over nine channels,[1]; compared with control,no difference between C10 and control
same,amplitude of IPPWs compared with control,[1]; throughout the infusion period,no significant differences between C10 and control
same,cytotoxicity relative to C12,[2],similar
same,fullness (VAS) after meal ingestion,"[3]; at 120 and 150 min, after the buffet meal",no difference between C10 and control
same,scores for bloating (VAS),"[3]; during 90 min intraduodenal infusion, 0.375 kcal/min",increased scores for bloating compared with control
same,nausea scores (VAS),[3]; [6],no difference in nausea scores between C10 and control
same,scores for hunger (VAS),[3]; [6],no differences were found between C10 and control
same,scores for prospective consumption (VAS),[3]; [6],no differences were found between C10 and control
same,scores for desire to eat (VAS),"[3]; during 90 min intraduodenal infusion, 0.375 kcal/min, healthy males, compared with control",no differences were found between C10 and control
same,energy intake at buffet meal,"[4]; after 90 min intraduodenal infusion 0.375 kcal/min, compared with control",no difference between C10 and control infusion
same,amount of energy (in g) ingested from carbohydrate,[4]; [7],no difference between C10 and control
same,amount of energy (in g) ingested from fat,[4]; [7],no difference between C10 and control
same,amount of energy (in g) ingested from protein,[4]; [7],no difference between C10 and control
same,time at which eating from the buffet meal was completed,"[4]; mean±SE, not statistically significant",20.6 ± 2.6 min
CCCCCCCCCCC(=O)O [C11],stimulation of CCK secretion,CCK secretion; gastric infusion,neither C11 nor C10
CCCCCCCCCCCCCCCCCC(=O)O [C18],stimulation of CCK secretion,CCK secretion; duodenal infusion,reported to stimulate CCK secretion
